Assays:
Assay in all cases: Kinase Profiling (KINOMEscan)
Type in all cases: binding
[1] = target: 456 kinases (of these 395 non-mutant kinases) (Homo sapiens, UniProt Q9H4B4); settings: PLK3; 10 μM
[2] = target: 456 kinases (of these 395 non-mutant kinases) (Homo sapiens, UniProt Q5S007); settings: LRRK2; 10 μM
[3] = target: 456 kinases (of these 395 non-mutant kinases) (Homo sapiens, UniProt P42685); settings: FRK; 10 μM
[4] = target: 456 kinases (of these 395 non-mutant kinases) (Homo sapiens, UniProt Q8IU85); settings: CAMK1D; 10 μM
[5] = target: 456 kinases (of these 395 non-mutant kinases) (Homo sapiens, UniProt Q96NX5); settings: CAMK1G; 10 μM
[6] = target: 456 kinases (of these 395 non-mutant kinases) (Homo sapiens, UniProt P07332); settings: FES; 10 μM
[7] = target: 456 kinases (of these 395 non-mutant kinases) (Homo sapiens, UniProt Q9C098); settings: DCAMKL3; 10 μM
[8] = target: 456 kinases (of these 395 non-mutant kinases) (Homo sapiens, UniProt Q8TDC3); settings: BRSK1; 10 μM
[9] = target: 456 kinases (of these 395 non-mutant kinases) (Homo sapiens, UniProt Q52WX2); settings: SBK1; 10 μM
[10] = target: 456 kinases (of these 395 non-mutant kinases) (Homo sapiens, UniProt Q6ZWH5); settings: NEK10; 10 μM
[11] = target: 456 kinases (of these 395 non-mutant kinases) (Homo sapiens, UniProt Q9UHD2); settings: TBK1; 10 μM
[12] = target: 456 kinases (of these 395 non-mutant kinases) (Homo sapiens, UniProt O96013); settings: PAK4; 10 μM
[13] = target: 456 kinases (of these 395 non-mutant kinases) (Homo sapiens, UniProt P07949, V804L); settings: RET(V804L); 10 μM
Chain of 456 kinases (of these 395 non-mutant kinases) (Homo sapiens, UniProt P07949, V804L) (P07949 29-1114 V804L limits assumed): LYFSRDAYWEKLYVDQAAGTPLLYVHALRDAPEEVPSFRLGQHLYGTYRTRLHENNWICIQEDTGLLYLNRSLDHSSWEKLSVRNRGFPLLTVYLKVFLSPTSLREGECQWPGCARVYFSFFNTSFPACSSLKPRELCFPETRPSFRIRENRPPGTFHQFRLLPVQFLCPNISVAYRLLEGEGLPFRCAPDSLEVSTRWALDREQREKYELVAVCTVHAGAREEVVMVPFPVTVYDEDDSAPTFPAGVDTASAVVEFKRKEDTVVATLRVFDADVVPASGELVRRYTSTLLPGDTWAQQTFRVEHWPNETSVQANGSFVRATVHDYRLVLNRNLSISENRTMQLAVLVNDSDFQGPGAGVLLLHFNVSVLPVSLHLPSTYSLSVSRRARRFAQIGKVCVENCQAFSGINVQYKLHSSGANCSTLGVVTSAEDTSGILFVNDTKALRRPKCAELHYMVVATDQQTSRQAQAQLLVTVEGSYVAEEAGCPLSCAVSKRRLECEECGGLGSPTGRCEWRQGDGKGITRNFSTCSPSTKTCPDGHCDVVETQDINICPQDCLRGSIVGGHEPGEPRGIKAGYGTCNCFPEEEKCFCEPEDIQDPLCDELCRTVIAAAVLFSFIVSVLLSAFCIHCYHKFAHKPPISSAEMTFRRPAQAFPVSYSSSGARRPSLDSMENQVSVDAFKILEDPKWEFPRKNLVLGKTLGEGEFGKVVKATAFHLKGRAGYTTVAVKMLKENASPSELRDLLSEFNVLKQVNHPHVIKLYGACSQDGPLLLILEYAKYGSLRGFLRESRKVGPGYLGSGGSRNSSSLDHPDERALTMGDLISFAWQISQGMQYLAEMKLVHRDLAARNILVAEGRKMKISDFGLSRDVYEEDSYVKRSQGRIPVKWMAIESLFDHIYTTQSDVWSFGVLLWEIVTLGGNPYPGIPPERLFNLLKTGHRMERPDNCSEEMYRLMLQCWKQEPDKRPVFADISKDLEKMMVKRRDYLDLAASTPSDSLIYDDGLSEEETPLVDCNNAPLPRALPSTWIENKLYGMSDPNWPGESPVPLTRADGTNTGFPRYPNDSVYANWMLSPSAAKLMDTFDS

[14] = target: 456 kinases (of these 395 non-mutant kinases) (Homo sapiens, UniProt O75582); settings: 10 μM
[15] = target: 456 kinases (of these 395 non-mutant kinases) (Homo sapiens, UniProt Q08881); settings: ITK; 10 μM
[16] = target: 456 kinases (of these 395 non-mutant kinases) (Homo sapiens, UniProt Q9HC98); settings: NEK6; 10 μM
[17] = target: 456 kinases (of these 395 non-mutant kinases) (Homo sapiens, UniProt Q14164); settings: IKK-epsilon; 10 μM
[18] = target: 456 kinases (of these 395 non-mutant kinases) (Homo sapiens, UniProt Q13873); settings: BMPR2; 10 μM
Chain of 456 kinases (of these 395 non-mutant kinases) (Homo sapiens, UniProt Q13873) (Q13873 27-1038 limits assumed, change not shown): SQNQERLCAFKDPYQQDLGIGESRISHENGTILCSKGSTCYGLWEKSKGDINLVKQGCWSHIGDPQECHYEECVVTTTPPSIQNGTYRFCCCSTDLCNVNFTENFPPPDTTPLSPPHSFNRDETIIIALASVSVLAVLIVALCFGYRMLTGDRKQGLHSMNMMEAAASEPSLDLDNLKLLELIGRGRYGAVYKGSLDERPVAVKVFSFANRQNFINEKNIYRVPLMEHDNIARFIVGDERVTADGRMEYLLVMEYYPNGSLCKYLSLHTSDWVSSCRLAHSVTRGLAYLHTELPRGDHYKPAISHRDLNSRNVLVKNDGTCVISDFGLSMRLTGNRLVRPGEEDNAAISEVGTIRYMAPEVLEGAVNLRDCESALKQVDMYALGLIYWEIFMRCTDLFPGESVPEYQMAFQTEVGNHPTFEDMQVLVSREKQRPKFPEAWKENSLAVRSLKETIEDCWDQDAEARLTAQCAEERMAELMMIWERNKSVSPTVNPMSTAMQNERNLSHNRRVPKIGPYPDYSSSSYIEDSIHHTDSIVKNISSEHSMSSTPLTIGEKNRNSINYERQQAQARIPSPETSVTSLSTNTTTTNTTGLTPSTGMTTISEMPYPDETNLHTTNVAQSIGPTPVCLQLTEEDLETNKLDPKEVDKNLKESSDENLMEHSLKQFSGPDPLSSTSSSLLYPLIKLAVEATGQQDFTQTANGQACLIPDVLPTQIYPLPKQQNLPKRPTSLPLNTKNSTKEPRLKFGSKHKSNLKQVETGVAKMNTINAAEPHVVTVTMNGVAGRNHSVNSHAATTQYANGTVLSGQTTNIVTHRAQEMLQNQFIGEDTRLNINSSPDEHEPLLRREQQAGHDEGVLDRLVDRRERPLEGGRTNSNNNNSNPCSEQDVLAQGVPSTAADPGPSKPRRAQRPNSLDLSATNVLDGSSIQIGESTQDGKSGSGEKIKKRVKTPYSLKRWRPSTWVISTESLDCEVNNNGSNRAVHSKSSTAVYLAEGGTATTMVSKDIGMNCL

[19] = target: 456 kinases (of these 395 non-mutant kinases) (Homo sapiens, UniProt Q96GD4); settings: AURKB; 10 μM
[20] = target: 456 kinases (of these 395 non-mutant kinases) (Homo sapiens, UniProt Q9Y6R4); settings: MAP3K4; 10 μM
[21] = target: 456 kinases (of these 395 non-mutant kinases) (Homo sapiens, UniProt P00533, L858R/T790M); settings: EGFR(L858R,T790M); 10 μM
[22] = target: 456 kinases (of these 395 non-mutant kinases) (Homo sapiens, UniProt P16591); settings: FER; 10 μM
[23] = target: 456 kinases (of these 395 non-mutant kinases) (Homo sapiens, UniProt P42336, C420R); settings: PIK3CA(C420R); 10 μM
[24] = target: 456 kinases (of these 395 non-mutant kinases) (Homo sapiens, UniProt P35916); settings: FLT4; 10 μM
Chain of 456 kinases (of these 395 non-mutant kinases) (Homo sapiens, UniProt P35916) (P35916 25-1363 limits assumed, change not shown): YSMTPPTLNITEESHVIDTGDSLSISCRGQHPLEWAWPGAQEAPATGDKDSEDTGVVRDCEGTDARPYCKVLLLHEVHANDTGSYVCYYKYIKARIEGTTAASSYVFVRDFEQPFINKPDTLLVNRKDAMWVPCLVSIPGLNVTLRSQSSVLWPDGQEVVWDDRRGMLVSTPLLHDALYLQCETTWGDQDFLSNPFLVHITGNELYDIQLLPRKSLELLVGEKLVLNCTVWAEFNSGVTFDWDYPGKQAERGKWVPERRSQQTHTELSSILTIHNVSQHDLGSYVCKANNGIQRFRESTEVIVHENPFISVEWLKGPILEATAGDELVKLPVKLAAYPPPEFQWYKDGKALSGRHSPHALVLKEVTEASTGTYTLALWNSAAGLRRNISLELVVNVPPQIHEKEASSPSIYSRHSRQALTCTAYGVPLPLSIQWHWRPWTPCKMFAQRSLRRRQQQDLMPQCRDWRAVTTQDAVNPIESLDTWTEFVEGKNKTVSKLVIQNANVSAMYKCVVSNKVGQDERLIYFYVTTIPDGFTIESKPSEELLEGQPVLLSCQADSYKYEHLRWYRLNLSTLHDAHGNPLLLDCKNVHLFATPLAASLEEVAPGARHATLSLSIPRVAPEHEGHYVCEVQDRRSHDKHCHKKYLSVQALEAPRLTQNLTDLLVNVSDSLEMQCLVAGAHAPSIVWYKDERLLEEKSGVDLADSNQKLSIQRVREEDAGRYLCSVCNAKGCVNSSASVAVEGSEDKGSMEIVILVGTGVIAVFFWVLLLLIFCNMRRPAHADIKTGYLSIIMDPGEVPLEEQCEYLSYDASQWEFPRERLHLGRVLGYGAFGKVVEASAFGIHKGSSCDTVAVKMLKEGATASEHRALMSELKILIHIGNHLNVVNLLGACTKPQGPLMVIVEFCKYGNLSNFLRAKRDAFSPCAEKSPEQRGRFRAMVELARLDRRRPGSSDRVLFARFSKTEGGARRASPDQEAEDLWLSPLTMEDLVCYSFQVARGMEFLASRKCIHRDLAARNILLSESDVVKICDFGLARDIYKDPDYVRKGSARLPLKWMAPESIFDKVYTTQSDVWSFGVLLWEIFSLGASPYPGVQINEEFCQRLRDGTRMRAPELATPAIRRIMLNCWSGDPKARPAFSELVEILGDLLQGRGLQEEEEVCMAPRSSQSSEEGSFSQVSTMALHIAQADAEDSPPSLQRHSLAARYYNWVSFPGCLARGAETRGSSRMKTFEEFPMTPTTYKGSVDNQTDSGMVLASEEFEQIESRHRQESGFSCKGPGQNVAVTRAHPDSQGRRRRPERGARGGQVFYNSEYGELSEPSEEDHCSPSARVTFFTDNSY

[25] = target: 456 kinases (of these 395 non-mutant kinases) (Homo sapiens, UniProt P19784); settings: CSNK2A2; 10 μM
[26] = target: 456 kinases (of these 395 non-mutant kinases) (Homo sapiens, UniProt O15264); settings: p38-delta; 10 μM
[27] = target: 456 kinases (of these 395 non-mutant kinases) (Homo sapiens, UniProt Q15569); settings: TESK1; 10 μM
[28] = target: 456 kinases (of these 395 non-mutant kinases) (Homo sapiens, UniProt Q8TDX7); settings: NEK7; 10 μM
[29] = target: 456 kinases (of these 395 non-mutant kinases) (Homo sapiens, UniProt P27361); settings: ERK1; 10 μM
Chain of 456 kinases (of these 395 non-mutant kinases) (Homo sapiens, UniProt P27361) (P27361 2-379 limits assumed, change not shown): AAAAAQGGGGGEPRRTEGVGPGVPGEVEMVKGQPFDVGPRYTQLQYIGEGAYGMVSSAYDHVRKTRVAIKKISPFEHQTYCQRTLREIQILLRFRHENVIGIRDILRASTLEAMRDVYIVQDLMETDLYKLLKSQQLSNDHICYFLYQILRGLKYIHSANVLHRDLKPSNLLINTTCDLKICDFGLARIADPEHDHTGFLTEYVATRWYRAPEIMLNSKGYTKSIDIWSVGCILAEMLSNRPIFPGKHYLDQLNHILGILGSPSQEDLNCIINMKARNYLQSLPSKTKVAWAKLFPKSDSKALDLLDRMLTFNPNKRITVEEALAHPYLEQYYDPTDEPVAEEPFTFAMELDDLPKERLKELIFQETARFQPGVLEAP

[30] = target: 456 kinases (of these 395 non-mutant kinases) (Homo sapiens, UniProt Q9UBF8); settings: PIK4CB; 10 μM
Chain of 456 kinases (of these 395 non-mutant kinases) (Homo sapiens, UniProt Q9UBF8) (Q9UBF8 2-816 limits assumed, change not shown): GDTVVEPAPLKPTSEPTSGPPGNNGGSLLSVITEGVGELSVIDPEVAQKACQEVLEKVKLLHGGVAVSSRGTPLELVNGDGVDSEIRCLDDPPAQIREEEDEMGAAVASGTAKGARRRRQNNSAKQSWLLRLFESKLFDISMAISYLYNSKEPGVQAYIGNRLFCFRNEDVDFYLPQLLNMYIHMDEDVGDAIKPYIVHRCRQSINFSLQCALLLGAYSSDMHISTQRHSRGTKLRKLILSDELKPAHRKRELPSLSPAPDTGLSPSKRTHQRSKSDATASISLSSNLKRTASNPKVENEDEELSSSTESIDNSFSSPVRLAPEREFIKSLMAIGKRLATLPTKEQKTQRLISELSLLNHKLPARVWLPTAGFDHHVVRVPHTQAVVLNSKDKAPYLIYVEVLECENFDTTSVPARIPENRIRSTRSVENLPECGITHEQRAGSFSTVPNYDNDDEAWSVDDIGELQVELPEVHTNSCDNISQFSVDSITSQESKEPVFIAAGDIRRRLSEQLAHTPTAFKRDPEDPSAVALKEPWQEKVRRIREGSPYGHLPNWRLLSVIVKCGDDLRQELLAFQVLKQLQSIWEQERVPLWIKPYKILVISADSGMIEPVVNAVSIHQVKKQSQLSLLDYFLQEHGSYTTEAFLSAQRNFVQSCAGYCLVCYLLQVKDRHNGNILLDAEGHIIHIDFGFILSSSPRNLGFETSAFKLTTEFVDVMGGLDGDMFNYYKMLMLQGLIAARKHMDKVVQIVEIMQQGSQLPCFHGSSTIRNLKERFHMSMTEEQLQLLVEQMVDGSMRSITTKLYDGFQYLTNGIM

[31] = target: 456 kinases (of these 395 non-mutant kinases) (Homo sapiens, UniProt Q00536); settings: PCTK1; 10 μM
[32] = target: 456 kinases (of these 395 non-mutant kinases) (Homo sapiens, UniProt Q02750); settings: MEK1; 10 μM

CCc1ccccc1NC(=O)c1c(C)nsc1Nc1cnc2cc(F)ccc2n1 [Example 20, N-(2-Ethylphenyl)-5-[(6-fluoroquinoxalin-2-yl)amino]-3-methyl-1,2-thiazole-4-carboxamide]
% Ctrl @ 10 μM [1]: 92 % Ctrl
% Ctrl @ 10 μM [2]: 95 % Ctrl
% Ctrl @ 10 μM [3]: 66 % Ctrl
% Ctrl @ 10 μM [4]: 87 % Ctrl
% Ctrl @ 10 μM [5]: 86 % Ctrl
% Ctrl @ 10 μM [6]: 94 % Ctrl
% Ctrl @ 10 μM [7]: 100 % Ctrl
% Ctrl @ 10 μM [8]: 90 % Ctrl
% Ctrl @ 10 μM [9]: 91 % Ctrl
% Ctrl @ 10 μM [10]: 84 % Ctrl
% Ctrl @ 10 μM [11]: 91 % Ctrl
% Ctrl @ 10 μM [12]: 100 % Ctrl
% Ctrl @ 10 μM [13]: 89 % Ctrl
% Ctrl @ 10 μM ([14]; RPS6KA5(Kin.Dom.1-N-terminal)): 100 % Ctrl
% Ctrl @ 10 μM ([14]; RPS6KA5(Kin.Dom.2-C-terminal)): 100 % Ctrl
% Ctrl @ 10 μM [15]: 100 % Ctrl
% Ctrl @ 10 μM [16]: 100 % Ctrl
% Ctrl @ 10 μM [17]: 100 % Ctrl
% Ctrl @ 10 μM [18]: 100 % Ctrl
% Ctrl @ 10 μM [19]: 100 % Ctrl
% Ctrl @ 10 μM [20]: 84 % Ctrl
% Ctrl @ 10 μM [21]: 96 % Ctrl
% Ctrl @ 10 μM [22]: 100 % Ctrl
% Ctrl @ 10 μM [23]: 96 % Ctrl
% Ctrl @ 10 μM [24]: 87 % Ctrl
% Ctrl @ 10 μM [25]: 100 % Ctrl
% Ctrl @ 10 μM [26]: 100 % Ctrl
% Ctrl @ 10 μM [27]: 78 % Ctrl
% Ctrl @ 10 μM [28]: 79 % Ctrl
% Ctrl @ 10 μM [29]: 100 % Ctrl
% Ctrl @ 10 μM [30]: 78 % Ctrl
% Ctrl @ 10 μM [31]: 100 % Ctrl
% Ctrl @ 10 μM [32]: 97 % Ctrl
